PubChem BioAssay AID248 (DTP/NCI, 2004)
Several values for one entry are separate records, joined by “and”; a condition that tells them apart may be missing. Identical values can stand only once. Inconclusive results and toxic doses are left out. Peptide text beside a SMILES is read from it.

Tested on: L1210 leukemia ip in BDF1 mice, survival T/C
Test: NCI In Vivo Anticancer Drug Screen. Data for tumor model L1210 Leukemia (intraperitoneal) in B6D2F1 (BDF1) mice
Settings: endpoint: mean survival time, higher = longer survival
In short: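 Tumor cells were implanted, animals were treated, and survival was followed. The result divides the treated measurement by the vehicle-control measurement.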

[1] = dose: 75.0 mg/kg/injection, schedule: Q01DX001 (ip), vehicle: carboxymethylcellulose (CMC)
[2] = dose: 5.0 mg/kg/injection, schedule: Q01DX001 (ip), vehicle: saline
[3] = dose: 10.0 mg/kg/injection, schedule: Q01DX001 (ip), vehicle: saline

O=NN(CCCl)C(=O)NC1(C(=O)O)CCCC1
T/C (dose: 15.0 mg/kg/injection, schedule: Q01DX001 (ip), vehicle: saline with Tween-80): 109 % of control | T/C (dose: 23.0 mg/kg/injection, schedule: Q01DX001 (ip), vehicle: saline with Tween-80): 113 % of control | T/C (dose: 50.0 mg/kg/injection, schedule: Q01DX001 (ip), vehicle: Klucel (hydroxypropylcellulose) (HPC)): 121 % of control | T/C (dose: 75.0 mg/kg/injection, schedule: Q01DX001 (ip), vehicle: Klucel (hydroxypropylcellulose) (HPC)): 172 % of control | T/C [1]: 162 % of control | T/C (dose: 80.0 mg/kg/injection, schedule: Q01DX001 (ip), vehicle: saline with Tween-80): 152 % of control | T/C (dose: 112.0 mg/kg/injection, schedule: Q01DX001 (ip), vehicle: Klucel (hydroxypropylcellulose) (HPC)): 243 % of control | T/C (dose: 112.0 mg/kg/injection, schedule: Q01DX001 (ip), vehicle: carboxymethylcellulose (CMC)): 168 % of control | T/C (dose: 119.0 mg/kg/injection, schedule: Q01DX001 (ip), vehicle: saline with Tween-80): 252 % of control | T/C (dose: 168.0 mg/kg/injection, schedule: Q01DX001 (ip), vehicle: Klucel (hydroxypropylcellulose) (HPC)): 310 % of control | T/C (dose: 168.0 mg/kg/injection, schedule: Q01DX001 (ip), vehicle: carboxymethylcellulose (CMC)): 272 % of control | T/C (dose: 178.0 mg/kg/injection, schedule: Q01DX001 (ip), vehicle: saline with Tween-80): 274 % of control | T/C (dose: 252.0 mg/kg/injection, schedule: Q01DX001 (ip), vehicle: Klucel (hydroxypropylcellulose) (HPC)): 106 % of control | T/C (dose: 252.0 mg/kg/injection, schedule: Q01DX001 (ip), vehicle: carboxymethylcellulose (CMC)): 89 % of control | T/C (dose: 266.0 mg/kg/injection, schedule: Q01DX001 (ip), vehicle: saline with Tween-80): 246 % of control

O=C1c2cccc3c(Br)ccc(c23)C(=O)N1CCCN1CCOCC1
T/C (dose: 25.0 mg/kg/injection, schedule: Q01DX009 (ip), vehicle: Klucel (hydroxypropylcellulose) (HPC)): 97 % of control | T/C (dose: 50.0 mg/kg/injection, schedule: Q01DX009 (ip), vehicle: Klucel (hydroxypropylcellulose) (HPC)): 90 % of control | T/C (dose: 100.0 mg/kg/injection, schedule: Q01DX009 (ip), vehicle: Klucel (hydroxypropylcellulose) (HPC)): 102 % of control

CC(O)C(NC(=O)C(N)CCCN=C(N)N)C(=O)NC(Cc1ccccc1)C(=O)O (stereo not drawn) (H-Arg-Thr-Phe-OH; configuration not given here)
T/C (dose: 18.75 mg/kg/injection, schedule: Q04DX002 (ip), vehicle: saline with Tween-80): 101 % of control | T/C (dose: 37.5 mg/kg/injection, schedule: Q04DX002 (ip), vehicle: saline with Tween-80): 97 % of control | T/C (dose: 75.0 mg/kg/injection, schedule: Q04DX002 (ip), vehicle: saline with Tween-80): 93 % of control | T/C (dose: 150.0 mg/kg/injection, schedule: Q04DX002 (ip), vehicle: saline with Tween-80): 97 % of control

CCOC(=O)c1c(/N=C/c2cc(Br)ccc2O)sc2c1CCCC2
T/C (dose: 100.0 mg/kg/injection, schedule: Q04DX002 (ip), vehicle: saline with Tween-80): 109 % of control | T/C (dose: 200.0 mg/kg/injection, schedule: Q04DX002 (ip), vehicle: saline with Tween-80): 102 % of control | T/C (dose: 400.0 mg/kg/injection, schedule: Q04DX002 (ip), vehicle: saline with Tween-80): 98 % of control

CCC(O)(CC)C(=O)Nc1ccccc1
T/C (dose: 50.0 mg/kg/injection, schedule: Q01DX001 (ip), vehicle: saline): 98 % of control | T/C (dose: 100.0 mg/kg/injection, schedule: Q01DX001 (ip), vehicle: saline): 104 % of control | T/C (dose: 200.0 mg/kg/injection, schedule: Q01DX001 (ip), vehicle: saline): 96 % of control | T/C (dose: 400.0 mg/kg/injection, schedule: Q01DX001 (ip), vehicle: saline): 102 % of control

Nc1ccc(Nc2ccc(N)cc2)cc1
T/C [2]: 101 % of control | T/C [3]: 113 % of control

Cc1cc(Cc2cc(C)cc(C(C)(C)C)c2O)c(O)c(Cc2cc(C)cc(C(C)(C)C)c2O)c1
T/C (dose: 100.0 mg/kg/injection, schedule: Q01DX009 (ip), vehicle: gum acacia): 97 % of control | T/C (dose: 100.0 mg/kg/injection, schedule: Q04DX003 (ip), vehicle: gum acacia): 91 % of control | T/C (dose: 200.0 mg/kg/injection, schedule: Q01DX009 (ip), vehicle: gum acacia): 96 % of control | T/C (dose: 200.0 mg/kg/injection, schedule: Q04DX003 (ip), vehicle: gum acacia): 96 % of control | T/C (dose: 400.0 mg/kg/injection, schedule: Q01DX009 (ip), vehicle: gum acacia): 94 % of control | T/C (dose: 400.0 mg/kg/injection, schedule: Q04DX003 (ip), vehicle: gum acacia): 96 % of control

[O-]/[N+](=C\c1ccc(/C=[N+](\[O-])c2ccccc2)cc1)c1ccccc1
T/C [2]: 97 % of control | T/C [3]: 95 % of control | T/C (dose: 20.0 mg/kg/injection, schedule: Q01DX001 (ip), vehicle: saline): 97 % of control | T/C (dose: 40.0 mg/kg/injection, schedule: Q01DX001 (ip), vehicle: saline): 92 % of control | T/C (dose: 80.0 mg/kg/injection, schedule: Q01DX001 (ip), vehicle: saline): 97 % of control

N#Cc1cn(C2OC(CO)C(O)C2O)c2ncn(O)c(=N)c12 (centres undefined)
T/C (dose: 0.19 mg/kg/injection, schedule: Q01DX005 (ip), vehicle: saline): 112 % of control | T/C (dose: 0.19 mg/kg/injection, schedule: Q01DX009 (ip), vehicle: saline): 107 % of control | T/C (dose: 0.39 mg/kg/injection, schedule: Q01DX005 (ip), vehicle: saline): 96 % of control | T/C (dose: 0.39 mg/kg/injection, schedule: Q01DX009 (ip), vehicle: saline): 97 % of control | T/C (dose: 0.78 mg/kg/injection, schedule: Q01DX005 (ip), vehicle: saline): 100 % of control | T/C (dose: 0.78 mg/kg/injection, schedule: Q01DX009 (ip), vehicle: saline): 100 % of control | T/C (dose: 1.56 mg/kg/injection, schedule: Q01DX005 (ip), vehicle: saline): 94 % of control

Nc1nc(N)c(-c2ccc(Cl)cc2)c(C=O)n1
T/C (dose: 100.0 mg/kg/injection, schedule: Q01DX001 (ip), vehicle: carboxymethylcellulose (CMC)): 108 % of control | T/C (dose: 200.0 mg/kg/injection, schedule: Q01DX001 (ip), vehicle: carboxymethylcellulose (CMC)): 87 % of control | T/C (dose: 400.0 mg/kg/injection, schedule: Q01DX001 (ip), vehicle: carboxymethylcellulose (CMC)): 108 % of control

C/C(=C\C(=N\NC(=N)N)c1ccccc1)c1ccccc1
T/C (dose: 1.87 mg/kg/injection, schedule: Q01DX Z (ip), vehicle: carboxymethylcellulose (CMC)): 94 % of control | T/C (dose: 3.75 mg/kg/injection, schedule: Q01DX Z (ip), vehicle: carboxymethylcellulose (CMC)): 97 % of control | T/C (dose: 7.5 mg/kg/injection, schedule: Q01DX Z (ip), vehicle: carboxymethylcellulose (CMC)): 88 % of control | T/C (dose: 7.5 mg/kg/injection, schedule: Q01DX Z (oral), vehicle: carboxymethylcellulose (CMC)): 108 % of control | T/C (dose: 15.0 mg/kg/injection, schedule: Q01DX Z (ip), vehicle: carboxymethylcellulose (CMC)): 98 % of control | T/C (dose: 15.0 mg/kg/injection, schedule: Q01DX Z (oral), vehicle: carboxymethylcellulose (CMC)): 106 % of control | T/C (dose: 30.0 mg/kg/injection, schedule: Q01DX Z (oral), vehicle: carboxymethylcellulose (CMC)): 100 % of control | T/C (dose: 60.0 mg/kg/injection, schedule: Q01DX Z (oral), vehicle: carboxymethylcellulose (CMC)): 108 % of control

CCCCC(C#N)C(O)C1CCCCC1 (centres undefined)
T/C (dose: 100.0 mg/kg/injection, schedule: Q01DX001 (ip), vehicle: other): 100 % of control | T/C (dose: 200.0 mg/kg/injection, schedule: Q01DX001 (ip), vehicle: other): 103 % of control | T/C (dose: 400.0 mg/kg/injection, schedule: Q01DX001 (ip), vehicle: other): 103 % of control

O=S(=O)(c1ccccc1)N1C=CC=CC=C1
T/C (dose: 25.0 mg/kg/injection, schedule: Q04DX002 (ip), vehicle: Klucel (hydroxypropylcellulose) (HPC)): 102 % of control | T/C (dose: 50.0 mg/kg/injection, schedule: Q04DX002 (ip), vehicle: Klucel (hydroxypropylcellulose) (HPC)): 102 % of control | T/C (dose: 100.0 mg/kg/injection, schedule: Q04DX002 (ip), vehicle: Klucel (hydroxypropylcellulose) (HPC)): 105 % of control

CCOc1ccc(NC(C)=O)c(OC(C)=O)c1
T/C [1]: 95 % of control and 100 % of control | T/C (dose: 150.0 mg/kg/injection, schedule: Q01DX001 (ip), vehicle: carboxymethylcellulose (CMC)): 100 % of control | T/C (dose: 300.0 mg/kg/injection, schedule: Q01DX001 (ip), vehicle: carboxymethylcellulose (CMC)): 93 % of control
